Laboratory results reported in patent publication US20260199484A1, “PROTAC DEGRADERS OF MLLT1 AND/OR MLLT3” (DARK BLUE THERAPEUTICS LTD, priority 2024, published 2026).

How the values were obtained:
MV4-11 cells = assay: MV4-11 cellular proliferative assay, Assay Format B (CTG 2.0, 168 h); type: cell-based; conditions: Homo sapiens, Assay format B, 168 h, read-out: IC50 (MV4-11 cellular proliferative assay)
Method: MV4-11 cells at a confluency of ~50-80% was used for cell growth assay. 600 cells/well in a 384-well opaque cell culture plate (6007680; Perkin Elmer) were seeded in 40 μL of complete medium (IMDM+10% FBS+1× Penicillin-Streptomycin). Cells were incubated overnight at 37° C., 5% CO2. 10 mM DMSO stocks were prepared, cells were treated with 10 concentrations of test compounds starting from 1 uM or 100 nM, 3-fold dilution in 10 uL (5× concentration) of complete medium. Final DMSO concentration was 0.3%. Culture plates were centrifuged at 40×g, 30s. Cells were incubated with compounds for 168 h (7 days). After 7 days, 20 uL CTG 2.0 reagent (G9242; Promega) was added per well and luminescence reading was taken in Envision Xcite 2105 multimode plate reader. Data was analyzed in GraphPad Prism 10.0 and data was shown as % viability with respect to DMSO control and dose-response curves were generated using four parameter logistic regression. Assay quality was determined by z-factor calculation using positive and negative controls.

MLLT1 = target: T1, MLLT1 (Homo sapiens, UniProt Q03111); assay: MLLT1 degradation assay in MV4-11 cells (JESS, 24 h); type: cell-based; parameters: endogenous in cells; host or cells: MV4-11 (ATCC CRL-9591); conditions: vs DMSO control
T1 sequence (Q03111 1-559): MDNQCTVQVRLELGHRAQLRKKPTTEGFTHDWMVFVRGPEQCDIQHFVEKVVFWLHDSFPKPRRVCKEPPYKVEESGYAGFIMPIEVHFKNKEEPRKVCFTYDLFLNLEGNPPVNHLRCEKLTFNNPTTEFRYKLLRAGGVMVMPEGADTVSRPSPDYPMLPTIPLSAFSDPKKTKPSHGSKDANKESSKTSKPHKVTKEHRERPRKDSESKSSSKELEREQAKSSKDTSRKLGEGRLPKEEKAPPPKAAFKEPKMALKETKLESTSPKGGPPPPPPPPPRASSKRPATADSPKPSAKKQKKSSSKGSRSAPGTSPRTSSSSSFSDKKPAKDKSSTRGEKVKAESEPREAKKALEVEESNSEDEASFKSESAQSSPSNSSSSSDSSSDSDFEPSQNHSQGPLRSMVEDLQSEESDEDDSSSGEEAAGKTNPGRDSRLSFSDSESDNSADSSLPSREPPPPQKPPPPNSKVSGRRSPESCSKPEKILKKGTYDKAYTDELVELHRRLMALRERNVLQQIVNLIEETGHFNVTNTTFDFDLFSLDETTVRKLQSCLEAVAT
Summary of the method: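 MV4-11 cells treated at 1000, 100 and 10 nM (0.1% DMSO) for 24 h at 37° C; lysates (4 ug protein) run on JESS capillary immunoassay with MLLT1 and GAPDH antibodies. Peak areas give % degradation versus DMSO, binned A (≥75%) to D (<25%).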

CN1CCC[C@@H]1c1cc2cnc(NC(=O)c3ccc4cnn(CCCCCCCC#Cc5cccc6c5CN(C5CCC(=O)NC5=O)C6=O)c4c3)cc2[nH]1 (stereo partly drawn) [Example 55, 1-(9-(2-(2,6-dioxopiperidin-3-yl)-1-oxoisoindolin-4-yl)non-8-yn-1-yl)-N-(2-((R)-1-methylpyrrolidin-2-yl)-1H-pyrrol[3,2-c]pyridin-6-yl)-1H-indazole-6-carboxamide]
IC50 (MV4-11 cells): < 100 nM | MLLT1% Degradation @ 0.01 μM (MLLT1): B (Category B: 50%≤B<75% degradation) | MLLT1% Degradation @ 0.1 μM (MLLT1): A (Category A: A≥75% degradation) | MLLT1% Degradation @ 1 μM (MLLT1): A (Category A: A≥75% degradation)

Cc1c([C@H]2CCCN2C)[nH]c2cc(NC(=O)c3ccc4c(C)nn(CCCCCCCC#Cc5cccc6c5CN(C5CCC(=O)NC5=O)C6=O)c4c3)ncc12 (stereo partly drawn) [Example 57, 1-(9-(2-(2,6-dioxopiperidin-3-yl)-1-oxoisoindolin-4-yl)non-8-yn-1-yl)-3-methyl-N-(3-methyl-2-((R)-1-methylpyrrolidin-2-yl)-1H-pyrrolo[3,2-c]pyridin-6-yl)-1H-indazole-6-carboxamide]
IC50 (MV4-11 cells): < 100 nM | MLLT1% Degradation @ 0.01 μM (MLLT1): A (Category A: A≥75% degradation) | MLLT1% Degradation @ 0.1 μM (MLLT1): A (Category A: A≥75% degradation) | MLLT1% Degradation @ 1 μM (MLLT1): A (Category A: A≥75% degradation)

Cc1nn(CCCCCCCC#Cc2cccc3c2CN(C2CCC(=O)NC2=O)C3=O)c2cc(C(=O)Nc3cc4[nH]c([C@H]5CCCN5C)cc4cn3)c(F)cc12 (stereo partly drawn) [Example 58, 1-(9-(2-(2,6-dioxopiperidin-3-yl)-1-oxoisoindolin-4-yl)non-8-yn-1-yl)-5-fluoro-3-methyl-N-(2-((R)-1-methylpyrrolidin-2-yl)-1H-pyrrolo[3,2-c]pyridin-6-yl)-1H-indazole-6-carboxamide]
IC50 (MV4-11 cells): < 100 nM | MLLT1% Degradation @ 0.01 μM (MLLT1): A (Category A: A≥75% degradation) | MLLT1% Degradation @ 0.1 μM (MLLT1): A (Category A: A≥75% degradation) | MLLT1% Degradation @ 1 μM (MLLT1): A (Category A: A≥75% degradation)

CN1CCC[C@@H]1c1cc2cnc(NC(=O)c3ccc4c(C5CC5)nn(CCCCCCCC#Cc5cccc6c5CN(C5CCC(=O)NC5=O)C6=O)c4c3)cc2[nH]1 (stereo partly drawn) [Example 59, 3-cyclopropyl-1-(9-(2-(2,6-dioxopiperidin-3-yl)-1-oxoisoindolin-4-yl)non-8-yn-1-yl)-N-(2-((R)-1-methylpyrrolidin-2-yl)-1H-pyrrolo [3,2-c]pyridin-6-yl)-1H-indazole-6-carboxamide]
IC50 (MV4-11 cells): < 100 nM | MLLT1% Degradation @ 0.01 μM (MLLT1): A (Category A: A≥75% degradation) | MLLT1% Degradation @ 0.1 μM (MLLT1): A (Category A: A≥75% degradation) | MLLT1% Degradation @ 1 μM (MLLT1): A (Category A: A≥75% degradation)

Cc1nn(CCCCCCCC#Cc2cccc(C3CCC(=O)NC3=O)c2F)c2cc(C(=O)Nc3cc4[nH]c([C@H]5CCCN5C)cc4cn3)ccc12 (stereo partly drawn) [Example 61, 1-(9-(3-(2,6-dioxopiperidin-3-yl)-2-fluorophenyl)non-8-yn-1-yl)-3-methyl-N-(2-((R)-1-methylpyrrolidin-2-yl)-1H-pyrrolo [3,2-c]pyridin-6-yl)-1H-indazole-6-carboxamide]
IC50 (MV4-11 cells): < 100 nM | MLLT1% Degradation @ 0.01 μM (MLLT1): C (Category C: 25%≤C<50% degradation) | MLLT1% Degradation @ 0.1 μM (MLLT1): A (Category A: A≥75% degradation) | MLLT1% Degradation @ 1 μM (MLLT1): A (Category A: A≥75% degradation)

Cc1nn(CCCCCCCC#Cc2cccc3c2CN(C2CCC(=O)NC2=O)C3=O)c2cc(C(=O)Nc3cc4[nH]c([C@H]5CCCN5C)c(C#N)c4cn3)ccc12 (stereo partly drawn) [Example 66, N-(3-cyano-2-((R)-1-methylpyrrolidin-2-yl)-1H-pyrrolo[3,2-c]pyridin-6-yl)-1-(9-(2-(2,6-dioxopiperidin-3-yl)-1-oxoisoindolin-4-yl)non-8-yn-1-yl)-3-methyl-1H-indazole-6-carboxamide]
IC50 (MV4-11 cells): < 100 nM | MLLT1% Degradation @ 0.01 μM (MLLT1): A (Category A: A≥75% degradation) | MLLT1% Degradation @ 0.1 μM (MLLT1): A (Category A: A≥75% degradation) | MLLT1% Degradation @ 1 μM (MLLT1): A (Category A: A≥75% degradation)

Cc1nn(CCCCCCCC#Cc2ccc(F)c3c2CN(C2CCC(=O)NC2=O)C3=O)c2cc(C(=O)Nc3cc4[nH]c([C@H]5CCCN5C)c(Cl)c4cn3)ccc12 (stereo partly drawn) [Example 67, N-(3-chloro-2-((R)-1-methylpyrrolidin-2-yl)-1H-pyrrolo[3,2-c]pyridin-6-yl)-1-(9-(2-(2,6-dioxopiperidin-3-yl)-7-fluoro-1-oxoisoindolin-4-yl)non-8-yn-1-yl)-3-methyl-1H-indazole-6-carboxamide]
IC50 (MV4-11 cells): < 100 nM | MLLT1% Degradation @ 0.01 μM (MLLT1): A (Category A: A≥75% degradation) | MLLT1% Degradation @ 0.1 μM (MLLT1): A (Category A: A≥75% degradation) | MLLT1% Degradation @ 1 μM (MLLT1): A (Category A: A≥75% degradation)

Cc1nn(C2CCN(CC#Cc3cccc4c3CN(C3CCC(=O)NC3=O)C4=O)CC2)c2cc(C(=O)Nc3cc4[nH]c([C@H]5CCCN5C)cc4cn3)ccc12 (stereo partly drawn) [Example 68, 1-(1-(3-(2-(2,6-dioxopiperidin-3-yl)-1-oxoisoindolin-4-yl)prop-2-yn-1-yl)piperidin-4-yl)-3-methyl-N-(2-((R)-1-methylpyrrolidin-2-yl)-1H-pyrrolo[3,2-c]pyridin-6-yl)-1H-indazole-6-carboxamide]
IC50 (MV4-11 cells): < 100 nM | MLLT1% Degradation @ 0.01 μM (MLLT1): A (Category A: A≥75% degradation) | MLLT1% Degradation @ 0.1 μM (MLLT1): A (Category A: A≥75% degradation) | MLLT1% Degradation @ 1 μM (MLLT1): B (Category B: 50%≤B<75% degradation)

Cc1nn(C2CCN(CC3CCN(c4cc5c(cc4F)C(=O)N(C4CCC(=O)NC4=O)C5=O)CC3)CC2)c2cc(C(=O)Nc3cc4[nH]c([C@H]5CCCN5C)cc4cn3)ccc12 (stereo partly drawn) [Example 69, 1-(1-((1-(2-(2,6-dioxopiperidin-3-yl)-6-fluoro-1,3-dioxoisoindolin-5-yl)piperidin-4-yl)methyl)piperidin-4-yl)-3-methyl-N-(2-((R)-1-methylpyrrolidin-2-yl)-1H-pyrrolo[3,2-c]pyridin-6-yl)-1H-indazole-6-carboxamide]
IC50 (MV4-11 cells): < 100 nM | MLLT1% Degradation @ 0.01 μM (MLLT1): A (Category A: A≥75% degradation) | MLLT1% Degradation @ 0.1 μM (MLLT1): A (Category A: A≥75% degradation) | MLLT1% Degradation @ 1 μM (MLLT1): A (Category A: A≥75% degradation)

Cc1nn(C2CCN(CC3CCN(c4ccc5c(c4)C(=O)N(C4CCC(=O)NC4=O)C5=O)CC3)CC2)c2cc(C(=O)Nc3cc4[nH]c([C@H]5CCCN5C)cc4cn3)ccc12 (stereo partly drawn) [Example 70, 1-(1-((1-(2-(2,6-dioxopiperidin-3-yl)-1,3-dioxoisoindolin-5-yl)piperidin-4-yl)methyl)piperidin-4-yl)-3-methyl-N-(2-((R)-1-methylpyrrolidin-2-yl)-1H-pyrrolo[3,2-c]pyridin-6-yl)-1H-indazole-6-carboxamide]
IC50 (MV4-11 cells): < 100 nM | MLLT1% Degradation @ 0.01 μM (MLLT1): A (Category A: A≥75% degradation) | MLLT1% Degradation @ 0.1 μM (MLLT1): A (Category A: A≥75% degradation) | MLLT1% Degradation @ 1 μM (MLLT1): A (Category A: A≥75% degradation)

Cc1nn(C2CCN(CC3CCN(c4cccc5c4C(=O)N(C4CCC(=O)NC4=O)C5=O)CC3)CC2)c2cc(C(=O)Nc3cc4[nH]c([C@H]5CCCN5C)cc4cn3)ccc12 (stereo partly drawn) [Example 71, 1-(1-((1-(2-(2,6-dioxopiperidin-3-yl)-1,3-dioxoisoindolin-4-yl)piperidin-4-yl)methyl)piperidin-4-yl)-3-methyl-N-(2-((R)-1-methylpyrrolidin-2-yl)-1H-pyrrolo[3,2-c]pyridin-6-yl)-1H-indazole-6-carboxamide]
IC50 (MV4-11 cells): < 100 nM | MLLT1% Degradation @ 0.01 μM (MLLT1): B (Category B: 50%≤B<75% degradation) | MLLT1% Degradation @ 0.1 μM (MLLT1): A (Category A: A≥75% degradation) | MLLT1% Degradation @ 1 μM (MLLT1): A (Category A: A≥75% degradation)

Cc1nn(CC#Cc2cccc3c2CN(C2CCC(=O)NC2=O)C3=O)c2cc(C(=O)Nc3cc4[nH]c([C@H]5CCCN5C)cc4cn3)ccc12 (stereo partly drawn) [Example 72, 1-(3-(2-(2,6-dioxopiperidin-3-yl)-1-oxoisoindolin-4-yl)prop-2-yn-1-yl)-3-methyl-N-(2-((R)-1-methylpyrrolidin-2-yl)-1H-pyrrolo[3,2-c]pyridin-6-yl)-1H-indazole-6-carboxamide]
IC50 (MV4-11 cells): < 100 nM | MLLT1% Degradation @ 0.01 μM (MLLT1): A (Category A: A≥75% degradation) | MLLT1% Degradation @ 0.1 μM (MLLT1): A (Category A: A≥75% degradation) | MLLT1% Degradation @ 1 μM (MLLT1): B (Category B: 50%≤B<75% degradation)
